Species: Rattus norvegicus
Experiment: DrugMatrix - Regimen: Daily Repeat
Assay type: toxicity, organism-based, Sprague-Dawley
Parameters: regimen Daily Repeat, gender Male, age 6-8 weeks
Details: in vivo, po, route oral GAVAGE, vehicle 100 % WATER; for BASOPHIL / EOSINOPHIL / ERYTHROCYTE COUNT / HEMATOCRIT / HEMOGLOBIN / LEUKOCYTE COUNT / LYMPHOCYTE / MEAN CORPUSCULAR HEMOGLOBIN / MEAN CORPUSCULAR HEMOGLOBIN CONCENTRATION / MONOCYTE / NEUTROPHIL / PLATELET COUNT: tissue Blood; for ALANINE AMINOTRANSFERASE / ALBUMIN / ALKALINE PHOSPHATASE / ASPARTATE AMINOTRANSFERASE / BLOOD UREA NITROGEN / CHLORIDE / CHOLESTEROL / CREATINE PHOSPHOKINASE / CREATININE / GLUCOSE / PHOSPHORUS / POTASSIUM / SODIUM / TOTAL BILIRUBIN / TOTAL PROTEIN: tissue Plasma
[1] = 0 mg/kg, 72 h, dose level Control, time 3 day
[2] = 0 mg/kg, 120 h, dose level Control, time 5 day
[3] = 755 mg/kg, 72 h, dose level High, time 3 day
[4] = 755 mg/kg, 120 h, dose level High, time 5 day

SMILES: CCN(CC)CCNC(=O)c1ccc(N)cc1 [PROCAINAMIDE]
- BASOPHIL [1]: 0%
- EOSINOPHIL [1]: 0.33%
- ERYTHROCYTE COUNT [1]: 5.88 x10E6/uL
- HEMATOCRIT [1]: 36.47%
- HEMOGLOBIN [1]: 14.2 G/DL
- LEUKOCYTE COUNT [1]: 9.28 x10E3/uL
- LYMPHOCYTE [1]: 82.33%
- MEAN CORPUSCULAR HEMOGLOBIN [1]: 24.2 pg
- MEAN CORPUSCULAR HEMOGLOBIN CONCENTRATION [1]: 38.97 G/DL
- MONOCYTE [1]: 2.33%
- NEUTROPHIL [1]: 15%
- PLATELET COUNT [1]: 1114 x10E3/uL
- ALANINE AMINOTRANSFERASE [1]: 41.17 u/L
- ALBUMIN [1]: 3.95 G/DL
- ALKALINE PHOSPHATASE [1]: 382.5 u/L
- ASPARTATE AMINOTRANSFERASE [1]: 67.33 u/L
- BLOOD UREA NITROGEN [1]: 15.5 mg/dL
- CHLORIDE [1]: 106.33 MEQ/L
- CHOLESTEROL [1]: 77.67 mg/dL
- CREATINE PHOSPHOKINASE [1]: 123.33 u/L
- CREATININE [1]: 0.62 mg/dL
- GLUCOSE [1]: 185.67 mg/dL
- PHOSPHORUS [1]: 10.2 mg/dL
- POTASSIUM [1]: 6.72 MEQ/L
- SODIUM [1]: 149.67 MEQ/L
- TOTAL BILIRUBIN [1]: 0.97 mg/dL
- TOTAL PROTEIN [1]: 6.58 G/DL
- BASOPHIL [2]: 0%
- EOSINOPHIL [2]: 0%
- ERYTHROCYTE COUNT [2]: 5.99 x10E6/uL
- HEMATOCRIT [2]: 36.88%
- HEMOGLOBIN [2]: 14.77 G/DL
- LEUKOCYTE COUNT [2]: 11.35 x10E3/uL
- LYMPHOCYTE [2]: 85.5%
- MEAN CORPUSCULAR HEMOGLOBIN [2]: 24.7 pg
- MEAN CORPUSCULAR HEMOGLOBIN CONCENTRATION [2]: 40.07 G/DL
- MONOCYTE [2]: 1.83%
- NEUTROPHIL [2]: 12.67%
- PLATELET COUNT [2]: 979.67 x10E3/uL
- ALANINE AMINOTRANSFERASE [2]: 36.5 u/L
- ALBUMIN [2]: 3.63 G/DL
- ALKALINE PHOSPHATASE [2]: 303.5 u/L
- ASPARTATE AMINOTRANSFERASE [2]: 61 u/L
- BLOOD UREA NITROGEN [2]: 16.5 mg/dL
- CHLORIDE [2]: 106.17 MEQ/L
- CREATINE PHOSPHOKINASE [2]: 154.83 u/L
- CREATININE [2]: 0.6 mg/dL
- GLUCOSE [2]: 201 mg/dL
- PHOSPHORUS [2]: 10.1 mg/dL
- POTASSIUM [2]: 6.85 MEQ/L
- SODIUM [2]: 148.17 MEQ/L
- TOTAL BILIRUBIN [2]: 0.58 mg/dL
- TOTAL PROTEIN [2]: 5.9 G/DL
- BASOPHIL [3]: 0%
- EOSINOPHIL [3]: 0%
- ERYTHROCYTE COUNT [3]: 5.39 x10E6/uL
- HEMATOCRIT [3]: 32.67%
- HEMOGLOBIN [3]: 13.03 G/DL
- LEUKOCYTE COUNT [3]: 10.2 x10E3/uL
- LYMPHOCYTE [3]: 85.67%
- MEAN CORPUSCULAR HEMOGLOBIN [3]: 24.17 pg
- MEAN CORPUSCULAR HEMOGLOBIN CONCENTRATION [3]: 39.9 G/DL
- MONOCYTE [3]: 1.33%
- NEUTROPHIL [3]: 13%
- PLATELET COUNT [3]: 1063.33 x10E3/uL
- ALANINE AMINOTRANSFERASE [3]: 43 u/L
- ALBUMIN [3]: 3.9 G/DL
- ALKALINE PHOSPHATASE [3]: 441.33 u/L
- ASPARTATE AMINOTRANSFERASE [3]: 61 u/L
- BLOOD UREA NITROGEN [3]: 16 mg/dL
- CHLORIDE [3]: 105.33 MEQ/L
- CHOLESTEROL [3]: 74.33 mg/dL
- CREATINE PHOSPHOKINASE [3]: 142.67 u/L
- CREATININE [3]: 0.57 mg/dL
- GLUCOSE [3]: 176.33 mg/dL
- PHOSPHORUS [3]: 11.97 mg/dL
- POTASSIUM [3]: 6.97 MEQ/L
- SODIUM [3]: 150.67 MEQ/L
- TOTAL BILIRUBIN [3]: 0.6 mg/dL
- TOTAL PROTEIN [3]: 6.5 G/DL
- BASOPHIL [4]: 0%
- EOSINOPHIL [4]: 0%
- ERYTHROCYTE COUNT [4]: 5.45 x10E6/uL
- HEMATOCRIT [4]: 33.47%
- HEMOGLOBIN [4]: 14.6 G/DL
- LEUKOCYTE COUNT [4]: 13.8 x10E3/uL
- LYMPHOCYTE [4]: 87.67%
- MEAN CORPUSCULAR HEMOGLOBIN [4]: 26.87 pg
- MEAN CORPUSCULAR HEMOGLOBIN CONCENTRATION [4]: 43.7 G/DL
- MONOCYTE [4]: 1.33%
- NEUTROPHIL [4]: 11%
- PLATELET COUNT [4]: 830.33 x10E3/uL
- ALANINE AMINOTRANSFERASE [4]: 40.67 u/L
- ALBUMIN [4]: 3.73 G/DL
- ALKALINE PHOSPHATASE [4]: 378.67 u/L
- ASPARTATE AMINOTRANSFERASE [4]: 63 u/L
- BLOOD UREA NITROGEN [4]: 14.33 mg/dL
- CHLORIDE [4]: 107.33 MEQ/L
- CHOLESTEROL [4]: 74 mg/dL
- CREATINE PHOSPHOKINASE [4]: 117.33 u/L
- CREATININE [4]: 0.67 mg/dL
- GLUCOSE [4]: 180 mg/dL
- PHOSPHORUS [4]: 10.5 mg/dL
- POTASSIUM [4]: 6.57 MEQ/L
- SODIUM [4]: 152.33 MEQ/L
- TOTAL BILIRUBIN [4]: 0.53 mg/dL
- TOTAL PROTEIN [4]: 6.03 G/DL

Source: ChEMBL document CHEMBL3885881, “DrugMatrix”
